Test results reported in patent US20240058375A1, “CO-FORMULATION OF POLYMYXINS FOR INHALATION” (priority 2021, published 2024).

What was measured:
[1] = test system: A549 cells; test: Cell viability of A549 cells, polymyxin B with or without polyaspartic acid, propidium iodide flow cytometry; format: cell-based, Human; settings: 1.0 mM polymyxin B alone, 24 h
Procedure: (§1) Human lung epithelial cells (A549 cells) were obtained from the American Type Culture Collection (ATCC® CCL-185™, Manassas, VA, USA), grown and sub-cultured in Dulbecco's modified Eagle's medium (DMEM) supplemented with 10% fetal bovine serum (FBS). A549 cells (1×10^5 cells/mL, 12-well plate) were seeded in supplemented DMEM at 37° C. in a humidified atmosphere containing 5% CO2 until 70% confluency. All experiments were conducted in three replicates. Cells were treated with 1.0 mM polymyxin B in the presence and absence of polyaspartic acid (0.25, 1.0 and 5.0 mM); and cell viability were examined at 24 h with flow cytometry after staining with propidium iodide. The drug concentrations for different formulations were selected based on our previous results on polymyxin toxicity in human lung epithelial cells. ^18 To assess the protective effect of polyglutamic acid, A549 cells (0.5×10^5 cells/mL, 200 μL/well) were seeded on 96-well plates (#353072, Corning, USA) for overnight at 37° C. Cells were treated with 1.0 mM polymyxin B in the presence and absence of polyglutamic acid (2.5, 5.0 and 10.0 μM). Cell viability was determined at 24 h using propidium iodide staining using EVOS® FL Auto Imaging System (Invitrogen; Approximate fluorescence excitation/emission maxima: 535/617 nm). […] Three random fields containing at least 50 cells per treatment condition were analyzed.

[2] = test system: A549 cells; test: Cell viability of A549 cells, polymyxin B with or without polyglutamic acid, propidium iodide imaging; format: cell-based, Human; settings: 1.0 mM polymyxin B alone, 24 h
Procedure: as §1

[3] = test system: A549 cells; test: Mitochondrial superoxide formation (MitoSOX Red) in A549 cells; format: cell-based, Human; settings: 1.0 mM polymyxin B alone, 24 h
Procedure: (§2) The attenuation of mitochondrial superoxide formation and loss of mitochondrial membrane potential caused by polymyxin B were determined. ^18 A549 cells (0.5×10^5 cells/mL) were grown on 8-well chamber slides ([…] polymer coverslip, ibidi, Germany) for overnight at 37° C. Cells were treated with 1.0 mM polymyxin B in the presence and absence of polyaspartic acid (0.25, 1.0 and 5.0 mM). To assess the formation of mitochondrial superoxide and loss of mitochondrial membrane potential MitoSOX Red dye (Invitrogen; excitation and emission wavelengths of 514 and 531 to 622 nm, respectively) and TMRE (Invitrogen; excitation and emission wavelengths of 561 and 568 to 690 nm, respectively) were employed, respectively. Nuclei were stained with Hoechst 33342 (Invitrogen; excitation and emission wavelengths of 405 and 410 to 551 nm, respectively) to allow cell counting. Fluorescence intensity was quantified by confocal laser scanning microscopy (Leica SP8 inverted microscope equipped with a 63× oil immersion objective). The average fluorescence intensity per cell for each treatment was calculated using ImageJ (45, 46). Three random fields containing at least 50 cells per treatment condition were analyzed and the TMRE fluorescence in untreated control cells was set as 100%.

[4] = test system: A549 cells; test: Mitochondrial membrane potential (TMRE) in A549 cells; format: cell-based, Human; settings: 1.0 mM polymyxin B alone; untreated control 100%
Procedure: as §2

[5] = test system: Swiss Albino mice; test: In vivo pulmonary toxicity, lung histopathology with semiquantitative scoring (SQS)
Procedure: The animal study was approved by the Monash Animal Ethics Committee, Monash University (Victoria, Australia). All experiments were conducted in accordance with the Australian Code of Practice for the Care and Use of Animals for Scientific Purposes. Swiss Albino mice (female; age, 6 weeks; body weight, 20 to 25 g) were obtained from the Monash Animal Research Platform (Clayton, Victoria, Australia). […] Animals were housed individually in metabolic cages and had free access to food and water. Mice were intratracheally administered 10 mg/kg of polymyxin B, 120 mg/kg of polyaspartic acid and the combinations of polyaspartic acid with polymyxin B three times a day.
Histopathological examinations of lungs were performed to assess the pulmonary toxicity by polymyxin B. At 24 h following pulmonary administration, mice were humanely killed and lungs were harvested and fixed in formalin immediately. To avoid any potential artificial damage to the lung epithelium, bronchoalveolar lavage and cardiac puncture were not performed. A semiquantitative scoring (SQS) system was employed to quantify the extent of lung damages. ^20 Briefly, we used the following grades for the severity and nature of the histopathological changes in the lungs: grade 0, no changes or mild changes considered insignificant; grade 1, minimal lesions affecting 1 to 25% of the area; grade 2, multifocal lesions affecting 25 to 50% of the area; and grade 3, severe tissue changes affecting >50% of the area. The grades were given the following scores: grade 0, 0.1; grade 1, 1; grade 2, 4; and grade 3, 10. Percentages of damage across different levels of the lungs were given the following scores: <1%, 0; from 1 to <5%, 1; from 5 to <10%, 2; from 10 to <20%, 3; from 20 to <30%, 4; from 30 to <40%, 5; >40%, 6. The overall lung histology score was determined as the product of the grade and percent damage score. An SQS was assigned the following scores: SQS 0, no significant change; SQS+1, mild damage; SQS+2, mild to moderate damage; SQS+3, moderate damage; SQS+4, moderate to severe damage; and SQS+5, severe damage.

[6] = intratracheal three times a day, 10 mg/kg polymyxin B and/or 120 mg/kg polyaspartic acid, lungs at 24 h

polymyxin B sulfate
Cell viability [1]: 36.7±5.1% | Cell viability [2]: 51.7±5.2% | MitoSOX fluorescence intensity, higher compared to the control [3]: > 200 fold | Mitochondrial membrane potential compared to the control [4]: 49.5±7.2% | Histological finding in lung [5, 6]: no macroscopic lesion but severe tissue injury | SQS of lung damage (grade) [5, 6]: +2 to +5 | Lung area affected by tissue injury ([5]; intratracheal three times a day, 10 mg/kg polymyxin B or 120 mg/kg polyaspartic acid, lungs at 24 h): 25-50% | Overall semi-quantitative score (SQS) of lung damage ([5]; mean±SD, 10 mg/kg polymyxin B alone or co-administered with 120 mg/kg polyaspartic acid): 3.0±1.4
